Earlier results on five compounds are cited in patent EP4060021A1, “MIMETIC MICROBIOLOGICAL CULTURE MEDIUM AND USES THEREOF” (BIOFILM PHARMA, priority 2021, dated 2022).

Data set [1] relates to souches de S. aureus issues de plaies. The following applies: cited from earlier work.
Another data set has as its system souche de S. aureus. The settings on record: modèle de sepsis, souris infectée par S. aureus, traitées; cited from earlier work.
The next data set concerns P. aeruginosa. The following applies: coculture S. aureus avec P. aeruginosa dans du milieu Lubbock; cited from earlier work.
The test system of another data set is S. aureus. The following applies: coculture S. aureus avec P. aeruginosa dans du milieu Lubbock; cited from earlier work.

Like-named read-outs stand apart in the source and are kept apart here.

Consider `CCCCCCCCCC(=O)N[C@@H](Cc1c[nH]c2ccccc12)C(=O)N[C@@H](CC(N)=O)C(=O)N[C@@H](CC(=O)O)C(=O)N[C@@H]1C(=O)NCC(=O)N[C@@H](CCCN)C(=O)N[C@@H](CC(=O)O)C(=O)N[C@H](C)C(=O)N[C@@H](CC(=O)O)C(=O)NCC(=O)N[C@H](CO)C(=O)N[C@@H]([C@H](C)CC(=O)O)C(=O)N[C@@H](CC(=O)c2ccccc2N)C(=O)O[C@@H]1C` (stereo in doubt) [daptomycine], for which the “sensibilité des souches de S. aureus” value is recorded as “plus sensibles” in data set [1] (milieu DMEM) and “plus résistantes” in data set [1] (milieux MLM ou Lacks).
As for `CC(=O)OCC1=C(C(=O)O)N2C(=O)[C@@H](NC(=O)Cc3cccs3)[C@H]2SC1` [cefalotine], the survie des souris entry in the data set with souche de S. aureus is listed as “ont survécu”.
Turning to `CO/N=C(\C(=O)N[C@@H]1C(=O)N2C(C(=O)O)=C(CSc3nc(=O)c(=O)[nH]n3C)CS[C@H]12)c1csc(N)n1` [ceftriaxone], the survie des souris entry with souche de S. aureus is reported as “ont survécu”.
`CC[C@H]1OC(=O)[C@H](C)[C@@H](O[C@H]2C[C@@](C)(OC)[C@@H](O)[C@H](C)O2)[C@H](C)[C@@H](O[C@@H]2O[C@H](C)C[C@H](N(C)C)[C@H]2O)[C@](C)(O)C[C@@H](C)C(=O)[C@H](C)[C@@H](O)[C@]1(C)O` [érythromycine]: the survie des souris entry with souche de S. aureus was “ont survécu”.
As to gentamicine, the résistance en coculture entry was “ce qui n'est pas le cas” in the data set with P. aeruginosa and “résistance partielle” with S. aureus.
